Data from patent US20110178131A1, “Compounds Which Have Activity At M1 Receptor And Their Uses In Medicine” (priority 2008, published 2011).
Where a name gives a salt, the structure may show the parent alone.

Target: T1, human muscarinic M1 receptors (Homo sapiens, UniProt P11229)
T1 construct: expressed in transfected cells
T1 sequence (P11229 1-460): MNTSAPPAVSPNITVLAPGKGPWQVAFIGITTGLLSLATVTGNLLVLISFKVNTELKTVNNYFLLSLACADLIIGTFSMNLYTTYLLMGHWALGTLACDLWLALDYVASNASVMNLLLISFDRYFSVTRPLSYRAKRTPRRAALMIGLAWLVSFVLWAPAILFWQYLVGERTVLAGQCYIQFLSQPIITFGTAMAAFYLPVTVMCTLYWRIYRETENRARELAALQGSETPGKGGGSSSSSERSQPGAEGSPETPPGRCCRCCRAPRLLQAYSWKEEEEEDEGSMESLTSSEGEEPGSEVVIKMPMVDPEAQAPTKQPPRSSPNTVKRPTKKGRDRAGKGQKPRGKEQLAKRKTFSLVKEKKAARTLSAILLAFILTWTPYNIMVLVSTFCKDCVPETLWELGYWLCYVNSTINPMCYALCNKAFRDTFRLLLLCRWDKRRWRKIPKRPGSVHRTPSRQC
Experiment: FLIPR experiments on M1 receptors (calcium response, agonism)
Type: cell-based
Conditions: CHO-M1 cells
Method: FLIPR Experiments on M1 Receptors to Determine a Agonist/Antagonist Potency
Compounds of the invention may be characterized in a functional assay to determine their ability to activate the intracellular calcium pathway in CHO cells with stable expression of human muscarinic M1 receptors using FLIPR (Fluorometric Imaging Plate Reader) technology. Briefly, CHO-M1 cells were plated (15,000/well) and allowed to grow overnight at 37 degrees. Media were removed and 30 μL loading buffer (HBSS with 2.5 mM probenicid, 2 μM Fluo-4, 500 μM Brilliant Black, pH 7.4) was added. After incubation at 37 degrees for 90 minutes, 10 μL of the assay buffer (HBSS with 2.5 mM probenecid, pH 7.4) containing test compounds was added to each well on the FLIPR instrument. Calcium response was monitored to determine agonism. […] Calcium response was then monitored again to determine compound's antagonism to acetylcholine. […] Results were imported into ActivityBase data analysis suite (ID Business Solution Inc., Parsippany, N.J.) where the curves were analysed by non-linear curve fitting and the resulting pEC50/fpKi were calculated. The maximum asymptotes of agonist compounds were calculated as percentage of maximum FLIPR response induced by carbamoylcholine chloride added as control on the same compound plates.

- EC50 (FLIPR calcium response, agonism, read-out: average pEC50 at the muscarinic M1 receptor (converted)): < 3.16 µM
- Emax (maximum asymptote as percentage of maximum FLIPR response induced by carbamoylcholine chloride, read-out: intrinsic activity): > 50%
Structure (SMILES): COCC1CCC(N2CCC(n3c(=O)oc4ccc(C#N)cc43)CC2)CC1 (mixture of isomers) [Example 1, 3-(1-{4-[(Methyloxy)methyl]cyclohexyl}-4-piperidinyl)-2-oxo-2,3-dihydro-1,3-benzoxazole-5-carbonitrile hydrochloride]
